Reference: article PMC10176470, “Engaging a Non-catalytic Cysteine Residue Drives Potent and Selective Inhibition of Caspase-6” (Journal of the American Chemical Society, 2023)
Where two headings read alike, the source gives them in different places.

Assays:
[1] = molecular target: T1, proteins of HEK293T cells transiently overexpressing caspase-6 (Homo sapiens, UniProt O95197); format: cell-based; conditions: protein RTN3 (O95197)
T1 sequence (O95197 1-1032): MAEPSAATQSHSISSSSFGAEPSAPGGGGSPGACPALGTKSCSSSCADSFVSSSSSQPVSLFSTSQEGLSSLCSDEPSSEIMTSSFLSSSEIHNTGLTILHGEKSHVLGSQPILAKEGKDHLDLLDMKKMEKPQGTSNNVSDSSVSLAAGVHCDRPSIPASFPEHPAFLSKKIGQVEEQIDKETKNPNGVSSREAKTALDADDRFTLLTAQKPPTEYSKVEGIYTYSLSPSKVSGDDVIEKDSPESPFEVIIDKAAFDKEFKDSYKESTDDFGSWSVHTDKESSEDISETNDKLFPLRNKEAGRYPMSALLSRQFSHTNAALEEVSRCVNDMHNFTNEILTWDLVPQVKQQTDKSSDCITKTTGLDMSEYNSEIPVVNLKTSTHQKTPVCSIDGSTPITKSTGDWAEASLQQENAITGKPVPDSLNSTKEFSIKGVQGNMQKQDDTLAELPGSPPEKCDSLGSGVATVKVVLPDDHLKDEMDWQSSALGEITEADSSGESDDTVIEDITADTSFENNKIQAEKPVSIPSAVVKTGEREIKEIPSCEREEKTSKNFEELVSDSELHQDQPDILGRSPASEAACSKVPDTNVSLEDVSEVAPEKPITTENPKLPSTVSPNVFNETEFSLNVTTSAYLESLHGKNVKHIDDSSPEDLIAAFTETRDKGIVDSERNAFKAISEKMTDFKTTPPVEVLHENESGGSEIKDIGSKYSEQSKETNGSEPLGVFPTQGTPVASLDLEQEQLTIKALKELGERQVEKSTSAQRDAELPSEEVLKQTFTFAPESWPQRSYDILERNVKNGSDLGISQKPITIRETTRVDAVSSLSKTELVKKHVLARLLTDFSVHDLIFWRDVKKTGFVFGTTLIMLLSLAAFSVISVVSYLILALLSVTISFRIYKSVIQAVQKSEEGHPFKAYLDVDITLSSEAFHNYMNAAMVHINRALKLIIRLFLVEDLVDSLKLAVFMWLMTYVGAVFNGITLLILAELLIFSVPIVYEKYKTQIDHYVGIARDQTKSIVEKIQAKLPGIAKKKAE

[2] = molecular target: proteins of HEK293T cells transiently overexpressing caspase-6 (Homo sapiens, UniProt P02786); format: cell-based; conditions: protein TFRC (P02786)
Sequence of proteins of HEK293T cells transiently overexpressing caspase-6 (Homo sapiens, UniProt P02786) (P02786 whole entry): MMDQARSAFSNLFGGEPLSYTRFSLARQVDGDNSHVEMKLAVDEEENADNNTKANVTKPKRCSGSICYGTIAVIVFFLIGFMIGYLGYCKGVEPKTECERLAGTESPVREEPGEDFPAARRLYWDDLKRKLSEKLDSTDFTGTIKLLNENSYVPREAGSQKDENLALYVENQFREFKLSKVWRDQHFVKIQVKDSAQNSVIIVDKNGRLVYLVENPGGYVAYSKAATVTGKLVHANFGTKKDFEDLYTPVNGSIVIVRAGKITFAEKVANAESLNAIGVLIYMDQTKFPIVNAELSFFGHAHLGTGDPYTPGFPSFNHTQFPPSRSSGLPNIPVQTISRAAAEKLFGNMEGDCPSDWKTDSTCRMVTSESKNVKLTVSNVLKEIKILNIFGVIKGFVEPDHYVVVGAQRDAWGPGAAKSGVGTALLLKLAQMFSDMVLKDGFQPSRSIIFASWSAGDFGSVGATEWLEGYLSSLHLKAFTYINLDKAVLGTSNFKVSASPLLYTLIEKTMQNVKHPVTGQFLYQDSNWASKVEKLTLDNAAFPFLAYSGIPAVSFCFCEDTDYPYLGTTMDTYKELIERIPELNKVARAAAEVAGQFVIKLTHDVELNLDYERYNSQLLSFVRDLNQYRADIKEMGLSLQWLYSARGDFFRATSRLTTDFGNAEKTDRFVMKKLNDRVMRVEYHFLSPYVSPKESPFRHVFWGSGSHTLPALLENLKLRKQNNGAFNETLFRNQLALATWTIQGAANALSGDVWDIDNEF

[3] = molecular target: proteins of HEK293T cells transiently overexpressing caspase-6 (Homo sapiens, UniProt P09429); format: cell-based; conditions: Probe; protein HMGB1 P09429
Sequence of proteins of HEK293T cells transiently overexpressing caspase-6 (Homo sapiens, UniProt P09429) (P09429 whole entry): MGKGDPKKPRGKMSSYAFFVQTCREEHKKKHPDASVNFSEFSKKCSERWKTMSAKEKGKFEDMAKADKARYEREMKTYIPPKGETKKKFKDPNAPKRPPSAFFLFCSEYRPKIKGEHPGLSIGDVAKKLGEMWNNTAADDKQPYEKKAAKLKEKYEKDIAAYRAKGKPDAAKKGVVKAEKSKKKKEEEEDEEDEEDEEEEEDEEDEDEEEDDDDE

[4] = molecular target: proteins of HEK293T cells transiently overexpressing caspase-6 (Homo sapiens, UniProt P22626); format: cell-based; conditions: exp_ref Probe; protein HNRNPA2B1 (P22626); analysis C6
Sequence of proteins of HEK293T cells transiently overexpressing caspase-6 (Homo sapiens, UniProt P22626) (P22626 whole entry): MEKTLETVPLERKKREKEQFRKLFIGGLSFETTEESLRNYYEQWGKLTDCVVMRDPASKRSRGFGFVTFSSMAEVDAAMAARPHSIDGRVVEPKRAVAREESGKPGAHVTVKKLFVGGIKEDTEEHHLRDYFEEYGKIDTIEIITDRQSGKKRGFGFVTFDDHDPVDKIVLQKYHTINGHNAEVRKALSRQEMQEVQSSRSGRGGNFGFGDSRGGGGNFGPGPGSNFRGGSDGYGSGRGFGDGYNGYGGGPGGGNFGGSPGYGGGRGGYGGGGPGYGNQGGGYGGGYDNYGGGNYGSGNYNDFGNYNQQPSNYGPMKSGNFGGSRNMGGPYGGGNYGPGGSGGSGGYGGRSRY

[5] = molecular target: proteins of HEK293T cells transiently overexpressing caspase-6 (Homo sapiens, UniProt P25788); format: cell-based; conditions: Probe; protein PSMA3 P25788
Sequence of proteins of HEK293T cells transiently overexpressing caspase-6 (Homo sapiens, UniProt P25788) (P25788 whole entry): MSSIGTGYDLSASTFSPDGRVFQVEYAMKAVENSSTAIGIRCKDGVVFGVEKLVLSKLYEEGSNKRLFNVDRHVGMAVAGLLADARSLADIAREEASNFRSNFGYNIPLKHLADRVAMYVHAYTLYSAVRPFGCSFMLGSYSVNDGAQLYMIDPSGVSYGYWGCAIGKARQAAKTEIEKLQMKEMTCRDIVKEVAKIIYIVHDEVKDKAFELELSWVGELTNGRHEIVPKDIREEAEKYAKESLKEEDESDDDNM

[6] = molecular target: proteins of HEK293T cells transiently overexpressing caspase-6 (Homo sapiens, UniProt P40227); format: cell-based; conditions: exp_ref Probe; protein CCT6A (P40227); analysis C6
Sequence of proteins of HEK293T cells transiently overexpressing caspase-6 (Homo sapiens, UniProt P40227) (P40227 whole entry): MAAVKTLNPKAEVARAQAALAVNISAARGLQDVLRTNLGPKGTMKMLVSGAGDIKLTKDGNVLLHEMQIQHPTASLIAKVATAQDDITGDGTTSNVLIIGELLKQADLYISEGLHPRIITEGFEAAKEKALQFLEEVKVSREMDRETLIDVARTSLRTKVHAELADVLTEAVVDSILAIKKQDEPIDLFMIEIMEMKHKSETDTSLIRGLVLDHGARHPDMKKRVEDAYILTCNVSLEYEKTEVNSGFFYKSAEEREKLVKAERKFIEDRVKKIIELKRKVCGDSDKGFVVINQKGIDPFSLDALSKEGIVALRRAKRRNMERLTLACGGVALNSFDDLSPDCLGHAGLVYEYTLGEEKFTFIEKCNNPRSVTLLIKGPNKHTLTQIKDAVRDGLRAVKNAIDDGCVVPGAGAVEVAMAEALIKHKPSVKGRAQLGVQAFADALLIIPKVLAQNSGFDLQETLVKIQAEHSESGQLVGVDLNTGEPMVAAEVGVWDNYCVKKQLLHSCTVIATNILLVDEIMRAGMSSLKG

[7] = molecular target: proteins of HEK293T cells transiently overexpressing caspase-6 (Homo sapiens, UniProt Q14444); format: cell-based; conditions: exp_ref Probe; protein CAPRIN1 (Q14444); analysis C6
Sequence of proteins of HEK293T cells transiently overexpressing caspase-6 (Homo sapiens, UniProt Q14444) (Q14444 whole entry): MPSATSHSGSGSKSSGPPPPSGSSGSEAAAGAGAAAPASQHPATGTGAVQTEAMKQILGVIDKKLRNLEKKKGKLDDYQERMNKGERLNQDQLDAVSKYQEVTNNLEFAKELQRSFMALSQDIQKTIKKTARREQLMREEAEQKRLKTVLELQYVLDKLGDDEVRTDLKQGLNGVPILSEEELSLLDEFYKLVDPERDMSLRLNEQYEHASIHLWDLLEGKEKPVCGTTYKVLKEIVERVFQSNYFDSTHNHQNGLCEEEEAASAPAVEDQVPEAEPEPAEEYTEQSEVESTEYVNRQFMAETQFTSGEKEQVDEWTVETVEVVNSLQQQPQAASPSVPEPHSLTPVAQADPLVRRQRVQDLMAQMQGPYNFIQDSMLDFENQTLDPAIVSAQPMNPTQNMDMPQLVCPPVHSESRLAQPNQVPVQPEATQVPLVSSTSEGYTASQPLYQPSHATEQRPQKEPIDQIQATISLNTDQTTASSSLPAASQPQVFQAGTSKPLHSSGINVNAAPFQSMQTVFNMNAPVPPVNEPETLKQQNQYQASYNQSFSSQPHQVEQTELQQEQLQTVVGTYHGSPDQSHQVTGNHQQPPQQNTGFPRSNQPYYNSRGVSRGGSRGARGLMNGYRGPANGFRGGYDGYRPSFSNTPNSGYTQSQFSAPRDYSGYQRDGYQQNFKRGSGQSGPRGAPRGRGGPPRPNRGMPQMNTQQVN

[8] = molecular target: T2, proteins of HEK293T cells transiently overexpressing caspase-6 (Homo sapiens, UniProt Q14697); format: cell-based; conditions: protein GANAB (Q14697)
T2 sequence (Q14697 29-944): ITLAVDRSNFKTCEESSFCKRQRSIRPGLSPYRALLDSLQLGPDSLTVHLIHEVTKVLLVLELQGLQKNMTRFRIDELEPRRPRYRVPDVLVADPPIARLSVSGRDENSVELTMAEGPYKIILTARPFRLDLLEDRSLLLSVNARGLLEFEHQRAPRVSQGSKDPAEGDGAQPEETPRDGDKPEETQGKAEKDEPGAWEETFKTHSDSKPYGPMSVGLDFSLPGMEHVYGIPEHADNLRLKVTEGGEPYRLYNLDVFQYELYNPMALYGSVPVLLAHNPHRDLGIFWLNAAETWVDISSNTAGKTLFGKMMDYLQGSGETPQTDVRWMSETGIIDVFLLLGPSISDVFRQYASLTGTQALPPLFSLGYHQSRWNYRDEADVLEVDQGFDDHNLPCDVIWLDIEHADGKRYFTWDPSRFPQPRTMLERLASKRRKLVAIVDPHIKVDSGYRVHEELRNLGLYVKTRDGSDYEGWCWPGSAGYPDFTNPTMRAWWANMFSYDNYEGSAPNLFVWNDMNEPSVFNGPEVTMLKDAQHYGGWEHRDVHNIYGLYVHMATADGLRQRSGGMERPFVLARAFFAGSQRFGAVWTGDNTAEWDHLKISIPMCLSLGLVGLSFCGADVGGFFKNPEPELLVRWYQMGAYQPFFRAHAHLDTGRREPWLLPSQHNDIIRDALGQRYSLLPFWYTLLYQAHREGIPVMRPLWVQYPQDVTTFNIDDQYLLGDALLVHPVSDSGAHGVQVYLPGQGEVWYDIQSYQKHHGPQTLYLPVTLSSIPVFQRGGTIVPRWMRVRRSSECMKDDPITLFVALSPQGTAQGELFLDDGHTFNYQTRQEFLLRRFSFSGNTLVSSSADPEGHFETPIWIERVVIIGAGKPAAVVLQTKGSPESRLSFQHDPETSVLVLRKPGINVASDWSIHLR

[9] = molecular target: proteins of HEK293T cells transiently overexpressing caspase-6 (Homo sapiens, UniProt Q8IWS0); format: cell-based; conditions: exp_ref Probe; protein PHF6 (Q8IWS0); analysis C6
Sequence of proteins of HEK293T cells transiently overexpressing caspase-6 (Homo sapiens, UniProt Q8IWS0) (Q8IWS0 whole entry): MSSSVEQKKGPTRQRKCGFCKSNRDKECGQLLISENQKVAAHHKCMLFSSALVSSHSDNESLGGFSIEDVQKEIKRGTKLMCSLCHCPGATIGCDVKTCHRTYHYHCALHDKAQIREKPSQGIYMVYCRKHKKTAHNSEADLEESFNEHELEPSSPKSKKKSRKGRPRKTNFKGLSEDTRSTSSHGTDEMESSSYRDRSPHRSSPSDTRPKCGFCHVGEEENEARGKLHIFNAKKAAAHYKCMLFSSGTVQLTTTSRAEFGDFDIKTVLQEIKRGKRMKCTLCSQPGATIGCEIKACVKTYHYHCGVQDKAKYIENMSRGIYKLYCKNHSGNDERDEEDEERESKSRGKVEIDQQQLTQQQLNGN

human caspases C1–C10 = test: Caspase selectivity assays (Eurofins/Panlabs), 10 µM 3a; format: biochemical; conditions: 3a at 10 μM
[10] = tested on: lamin A cleavage by caspase-6 in SK-N-AS cells; test: Lamin cleavage assay (in-cell western after staurosporine induction); format: cell-based; conditions: Homo sapiens, 1 h compound then staurosporine 3 h
Protocol: This assay measured lamin A cleavage under staurosporine-induced caspase activation; while staurosporine activates all executioner caspases, lamin A cleavage monitors only the activity of C6. After 1 h of preincubation with the compound and 3 h of incubation with staurosporine, lamin A cleavage was measured by in-cell western.
Inhibition of lamin A cleavage in SK-N-AS cells after staurosporine induction of caspases. Cells were treated with the indicated compound for 1 h before the addition of 10 μM staurosporine for 4 h. Error bars indicate the standard deviation from n = 4 replicate samples.
serves as a useful target-engagement assay in cells. We used the procedure of Mintz, et al, with the following modifications: SK-N-AS cells were seeded at 10,000 cells/well in black clear bottom 384-
well plates coated with poly-D-lysine and allowed to adhere overnight. Wells were treated with
varying doses of casapase-6 inhibitor, from 5 µM – 0.1 nM in 2-fold dilutions. After one hour, cells
were treated with 10 µM staurosporine to induce apoptosis and activation of multiple caspases. 3
hours after staurosporine addition, cells were fixed and permeabilized before in-cell westerns were
performed, as described.9

Structure (SMILES)	enrich.exp.med.lin [1]	enrich.exp.med.log2 [1]	enrich.exp.med.lin ([1]; Expt Probe, analysis C6)	enrich.exp.med.log2 ([1]; Expt Probe, analysis C6)	enrich.exp.med ([1]; exp_ref Probe, analysis C6)	enrich.exp.med ([2]; exp_ref Probe, analysis C6)	enrich.exp.med.lin [2]	enrich.exp.med.log2 [2]	enrich.exp.med [3]	enrich.exp.med [4]	enrich.exp.med [5]	enrich.exp.med [6]	enrich.exp.med [7]	enrich.exp.med ([8]; exp_ref Probe, analysis C6)	enrich.exp.med.lin [8]	enrich.exp.med.log2 [8]	enrich.exp.med [9]	effect on the other caspase isoforms (in words) (human caspases C1–C10)	IC50 [10]
C#CCOc1ccc([C@@H]2C[C@@H](C(=O)Nc3ccc(OC(F)(F)F)cc3)CN(S(=O)(=O)C=C)C2)cc1 (relative stereo) [13-t]	5.629	2.493	5.629	2.493	2.493	0.8901	1.853	0.8901	-1.399	-0.1215	-2.444	0.2516	0.06778	-0.2903	0.8177	-0.2903	1.065		
C=CS(=O)(=O)N1C[C@H](C(=O)Nc2ccc(OC(F)(F)F)cc2)C[C@@H](c2ccccc2)C1 [3a]																		little, if any, effect	170 ± 4 nM
